From patent US10160705B2, “Class of HDAC inhibitors expands the renal progenitor cells population and improves the rate of recovery from acute kidney injury” (University of Pittsburgh—Of the Commonwealth System of …, priority 2011, dated 2018)
Read-outs that look alike come from different tables or passages of the source.

Experiments:
lhx1a, pax2a, pax8, ntla = assay: Relative qPCR in the trunk region of 10-somite embryos; assay type: in vivo, zebrafish; conditions: 3 μM
Experimental: Several of the genes analyzed by qPCR, including lhx1a and pax2a, show expression in anterior regions of the embryo as well as the IM. To focus more specifically on effects in the IM, cDNA samples taken from the trunks of treated and control embryos were examined. Samples for trunk RNA extraction were prepared by cutting embryos just above the first somite with microscissors and discarding the anterior portion. The trunk portions were homogenized with a plastic microcentrifuge pestle in 500 μL of TRI reagent (Ambion), and RNA was isolated using an RNeasy Micro Kit (QIAGEN) per the manufacturer's instructions. 1 μg RNA was heated to 75° C. for 5 min and then placed on ice. […]
Primer sets were designed using NetPrimer and Beacon Designer (ver. 7.51) primer analysis software (PREMIER Biosoft). […] Primer melting temperatures were maintained between 60° C. and 64° C. as determined by NetPrimer. […] The reference gene primer sets have been previously described (Tang, R., Dodd, A., Lai, D., McNabb, W. C. & Love, D. R. Validation of zebrafish (Danio rerio) reference genes for quantitative real-time RT-PCR normalization. Acta Biochim Biophys Sin (Shanghai) 39, 384-390, (2007)) with one modification. […]
Relative gene expression was calculated using iQ5 software (ver. 2.0, Bio-Rad) to determine normalized expression levels (ΔΔCt method). […]

renal progenitor cells = assay: In situ hybridization for lhx1a expression in 10-somite embryos (renal progenitor cell expansion); assay type: in vivo; for Lhx1a expansion caused by analog treatment, 3 μM: key: effective (+); partially effective (+/−); ineffective (−); Analogs that killed all embryos at a given concentration before reaching 10 somites are listed as XX; for Lhx1a expansion caused by analog treatment, 800 nM: key: effective (+); partially effective (+/−); ineffective (−); Analogs that killed all embryos at a given concentration before reaching 10 somites are listed as XX
Procedure, shortened: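 Zebrafish embryos treated with compound, then colorimetric whole-mount in situ hybridization (65° C) for lhx1a mRNA at 10 somites. Embryos with expanded kidney field counted manually as percent of total. EC50 taken as 50% point of percent-expansion trendline; compounds also classed effective, partial or ineffective versus PTBA at matched concentration.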

histone H4 = assay: Histone H4 hyperacetylation Western blot in treated embryos; assay type: in vivo, zebrafish; conditions: 24 hpf embryos, 6 hours; 3 μM PTBA, 25 μM PBA, 200 nM TSA
Experimental: It was next determined whether the HDACi function of PTBA was quantifiable in vivo. 24 hpf embryos were treated with 3 μM PTBA, 25 μM PBA, or 200 nM TSA for 6 hours. Protein extracts were prepared and immunoblotted with an anti-hyperacetylated histone H4 antibody. […] Furthermore, increasing the compound concentration caused a corresponding increase in hyperacetylation (FIG. 21).
SDS-PAGE and Western blotting were performed as described previously with some modifications (Noel, E. S. et al. Organ-specific requirements for Hdac1 in liver and pancreas formation. Dev Biol 322, 237-250, (2008)). Proteins were separated on 18% SDS-PAGE gels. Membranes were incubated at 4° C. overnight with 1:1000 anti-hyperacetylated histone H4 antibody (06-946, Millipore) or 1:1000 anti-α-tubulin antibody (Sigma-Aldrich) in PBT containing 5% nonfat milk.

For `O=C(O)CCCSc1ccccc1` [UPHD-00020, 4-(phenylthio)butanoic acid (PTBA)], the “increase in pax2a expression by qPCR” value (lhx1a, pax2a, pax8, ntla) was “almost two-fold increase”, the “increase in relative lhx1a transcript by qPCR” value (lhx1a, pax2a, pax8, ntla) was “three-fold increase” and the “Lhx1a expansion caused by analog treatment, 800 nM” value (renal progenitor cells; 800 nM from 2 hpf, 10-somite embryos) was “+/−”. For the same compound, the “Lhx1a expansion caused by analog treatment, 1.5 μM” value (renal progenitor cells; 1.5 μM from 2 hpf, 10-somite embryos) was “+”, the “Lhx1a expansion caused by analog treatment, 3 μM” value (renal progenitor cells; 3 μM from 2 hpf, 10-somite embryos) was “+” and the responders at 1.5 µM (renal progenitor cells; Danio rerio, 1.5 μM from 2 hpf, 10-somite embryos, read-out: lhx1a expansion, percent of treated embryos) was 83%. For the same compound, the responders at 3 µM (renal progenitor cells; Danio rerio, 3 μM PTBA added at 8 hpf after 0.5% DMSO at 5 hpf (HUA study), read-out: lhx1a expansion, percent of treated embryos) was 97%, the responders at 3 µM (renal progenitor cells; Danio rerio, 3 μM PTBA together with HUA (hydroxyurea and aphidicolin), read-out: lhx1a expansion, percent of treated embryos) was 13% and the responders at 3 µM (renal progenitor cells; Danio rerio, 3 μM from 2 hpf, 10-somite embryos, read-out: lhx1a expansion, percent of treated embryos) was 95%. For the same compound, the responders at 3 µM (renal progenitor cells; Danio rerio, embryos injected with 200 pg DN-RARα mRNA, 3 μM PTBA from 5 hpf, read-out: lhx1a expansion, percent of treated embryos) was 19%, the responders at 3 µM (renal progenitor cells; Danio rerio, mock-injected embryos, 3 μM PTBA from 5 hpf, read-out: lhx1a expansion, percent of treated embryos) was 90% and the responders at 0.2 µM (renal progenitor cells; Danio rerio, percent of embryos with expanded kidney field, 200 nM, read-out: Expansion of Cells (including repeats* and recounts**) 200 nM) was 10%. It also gave a responders at 0.4 µM (renal progenitor cells; Danio rerio, percent of embryos with expanded kidney field, 400 nM, read-out: Expansion of Cells (including repeats* and recounts**) 400 nM) of 10%, a responders at 3 µM (renal progenitor cells; Danio rerio, percent of embryos with expanded kidney field, 3 μM, read-out: Expansion of Cells (including repeats* and recounts**) 3 μM) of 100% and an EC50 (renal progenitor cells; Danio rerio, first pass EC50 from percent expansion (Excel trendline), average where several experiments) of 1.4 µM. For the same compound, the “histone H4 hyperacetylation” value (histone H4) was “Histone H4 hyperacetylation was observed”.
